In US20150335579A1, “MULTILAYER TABLET CONTAINING TELMISARTAN AND HYDROCHLOROTHIAZIDE” (Sawai Pharmaceutical Co., Ltd., priority 2013, published 2015):

Experiment: Moisture absorbency of telmisartan and telmisartan meglumine salt
Format: physicochemical
From the text: As mentioned above, it is known that the hydrolysis of hydrochlorothiazide is promoted by temperature and humidity.

| moisture absorbency relative to telmisartan itself | moisture absorbency (result in words) | SMILES |
| --- | --- | --- |
| about 10 times | – | CCCc1nc2c(C)cc(-c3nc4ccccc4n3C)cc2n1Cc1ccc(-c2ccccc2C(=O)O)cc1.CNCC(O)C(O)C(O)C(O)CO [telmisartan meglumine salt] |
| – | relatively low | CCCc1nc2c(C)cc(-c3nc4ccccc4n3C)cc2n1Cc1ccc(-c2ccccc2C(=O)O)cc1 [telmisartan] |
